In PubChem BioAssay AID330 (DTP/NCI, 2004):
Where “and” joins values, the source holds several entries; their conditions need not be identical. Equal values may be shown once. Inconclusive results and toxic doses are left out. Numbered stars: 1 amine (or outer) side, 2 acyl side, 3 side chain; on linkers, the order of the positions; unused ones are H or OH. Square brackets hold non-standard residues; d marks the D form. Peptide text beside a SMILES is read from it. X9 = C=CCC(O[*:1])C(=O)[*:2]; NMeV = CN[CH](C(=O)O)C(C)C; NMeA = CN[CH](C)C(=O)O; βAla = NCCC(=O)O

Test system: P388 leukemia ip, CD2F1 mice, survival T/C
Test: NCI In Vivo Anticancer Drug Screen. Data for tumor model P388 Leukemia (intraperitoneal) in CD2F1 (CDF1) mice
Details: endpoint: median survival time, higher = longer survival
Procedure, shortened: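 Mice carrying the transplanted tumor received test compound or vehicle. Survival was recorded in each group, and the value is the treated-group measurement divided by that of the vehicle-treated control group.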

[1] = dose: 100.0 mg/kg/injection, schedule: Q04DX002 (ip), vehicle: Klucel (hydroxypropylcellulose) (HPC)
[2] = dose: 100.0 mg/kg/injection, schedule: Q01DX005 (ip), vehicle: Klucel (hydroxypropylcellulose) (HPC)
[3] = dose: 50.0 mg/kg/injection, schedule: Q01DX009 (ip), vehicle: saline with Tween-80
[4] = dose: 100.0 mg/kg/injection, schedule: Q01DX009 (ip), vehicle: saline with Tween-80

Question: With `COc1ccccc1OCC1CCC(=O)O1` (stereo not drawn) as the molecule, how does the T/C [1] read?
Answer: Its T/C is 95 % of control.

Question: What about the T/C (dose: 200.0 mg/kg/injection, schedule: Q04DX002 (ip), vehicle: Klucel (hydroxypropylcellulose) (HPC)) of the same molecule?
Answer: Its T/C is 103 % of control.

Question: And the T/C (dose: 400.0 mg/kg/injection, schedule: Q04DX002 (ip), vehicle: Klucel (hydroxypropylcellulose) (HPC))?
Answer: Its T/C is 101 % of control.

Question: For `O=S(=O)(c1ccc(Br)cc1)S(=O)(=O)c1ccc(Br)cc1`, which T/C (dose: 50.0 mg/kg/injection, schedule: Q01DX009 (ip), vehicle: saline) is on record?
Answer: Its T/C is 87 % of control.

Question: What about the T/C (dose: 100.0 mg/kg/injection, schedule: Q01DX009 (ip), vehicle: saline) of the same molecule?
Answer: Its T/C is 92 % of control.

Question: What about the T/C (dose: 200.0 mg/kg/injection, schedule: Q01DX009 (ip), vehicle: saline) of the same molecule?
Answer: Its T/C is 95 % of control.

Question: `C=CCC1OC(=O)CCNC(=O)C(C)N(C)C(=O)C(C(C)C)N(C)C(=O)C(C(C)CC)NC(=O)C2CCCN2C1=O` (stereo not drawn) (cyclo([X9]PI[NMeV][NMeA][βAla]); configuration not given here) was tested. Which T/C (dose: 1.56 mg/kg/injection, schedule: Q01DX005 (ip), vehicle: water) did it give?
Answer: Its T/C is 94 % of control.

Question: What about the T/C (dose: 3.12 mg/kg/injection, schedule: Q01DX005 (ip), vehicle: water) of the same molecule?
Answer: The T/C was 95 % of control.

Question: What about the T/C (dose: 6.25 mg/kg/injection, schedule: Q01DX005 (ip), vehicle: water) of the same molecule?
Answer: Its T/C is 101 % of control.

Question: What about the T/C (dose: 12.5 mg/kg/injection, schedule: Q01DX005 (ip), vehicle: water) of the same molecule?
Answer: The T/C was 104 % of control.

Question: `Cc1ccc([Se]CCBr)cc1` was tested. Which T/C (dose: 25.0 mg/kg/injection, schedule: Q01DX001 (ip), vehicle: saline) did it give?
Answer: Its T/C is 108 % of control.

Question: What about the T/C (dose: 50.0 mg/kg/injection, schedule: Q01DX001 (ip), vehicle: saline) of the same molecule?
Answer: Its T/C is 101 % of control.

Question: What about the T/C (dose: 100.0 mg/kg/injection, schedule: Q01DX001 (ip), vehicle: saline) of the same molecule?
Answer: The T/C was 96 % of control.

Question: Which results are given for `Nc1cc(-c2ccc(Cl)cc2)nn1-c1nnc(-c2ccccc2)c(-c2ccccc2)n1`?
Answer: T/C (dose: 50.0 mg/kg/injection, schedule: Q01DX005 (ip), vehicle: saline with Tween-80): 93 % of control; T/C (dose: 100.0 mg/kg/injection, schedule: Q01DX005 (ip), vehicle: saline with Tween-80): 100 % of control; T/C (dose: 200.0 mg/kg/injection, schedule: Q01DX005 (ip), vehicle: saline with Tween-80): 103 % of control

Question: For `COc1cc2c(c(OC)c1OC)-c1ccc(OC)c(=O)cc1C(NC(=O)COc1ccccc1)CC2` (stereo not drawn), which T/C (dose: 0.16 mg/kg/injection, schedule: Q01DX009 (ip), vehicle: Klucel (hydroxypropylcellulose) (HPC)) is on record?
Answer: Its T/C is 120 % of control.

Question: And the T/C (dose: 1.25 mg/kg/injection, schedule: Q01DX009 (ip), vehicle: Klucel (hydroxypropylcellulose) (HPC))?
Answer: The T/C was 164 % of control and 171 % of control.

Question: And the T/C (dose: 2.5 mg/kg/injection, schedule: Q01DX009 (ip), vehicle: Klucel (hydroxypropylcellulose) (HPC))?
Answer: The T/C was 104 % of control and 207 % of control.

Question: Which T/C (dose: 25.0 mg/kg/injection, schedule: Q04DX002 (ip), vehicle: Klucel (hydroxypropylcellulose) (HPC)) does the source give for `Nc1ccc(S(=O)(=O)n2c(=O)oc3cc(Br)ccc32)cc1` here?
Answer: The T/C was 99 % of control.

Question: What about the T/C (dose: 50.0 mg/kg/injection, schedule: Q04DX002 (ip), vehicle: Klucel (hydroxypropylcellulose) (HPC)) of the same molecule?
Answer: The T/C was 99 % of control.

Question: What about the T/C [1] of the same molecule?
Answer: The T/C was 100 % of control and 93 % of control.

Question: What does the source list for `Cn1c(=O)c2c(ncn2Cc2ccc(O)c([N+](=O)[O-])c2)n(C)c1=O`?
Answer: T/C (dose: 25.0 mg/kg/injection, schedule: Q01DX005 (ip), vehicle: Klucel (hydroxypropylcellulose) (HPC)): 91 % of control; T/C [2]: 94 % of control; T/C (dose: 200.0 mg/kg/injection, schedule: Q01DX005 (ip), vehicle: Klucel (hydroxypropylcellulose) (HPC)): 92 % of control

Question: `Cc1ccc(-n2cc(-c3ccc(Cl)cc3)c3c(N)ncnc32)cc1` was tested. Which T/C (dose: 60.0 mg/kg/injection, schedule: Q01DX005 (ip), vehicle: saline with Tween-80) did it give?
Answer: Its T/C is 105 % of control.

Question: And the T/C (dose: 120.0 mg/kg/injection, schedule: Q01DX005 (ip), vehicle: saline with Tween-80)?
Answer: Its T/C is 104 % of control.

Question: What about the T/C (dose: 240.0 mg/kg/injection, schedule: Q01DX005 (ip), vehicle: saline with Tween-80) of the same molecule?
Answer: The T/C was 88 % of control.

Question: For `COC1/C=C\OC2(C)Oc3c(C)c(O)c4c(O)c(c(/C=N/N(Cc5ccccc5)C56CC7CC(CC(C7)C5)C6)c(O)c4c3C2=O)NC(=O)/C(C)=C\C=C\C(C)C(O)C(C)C(O)C(C)C(OC(C)=O)C1C` (stereo not drawn), which T/C [3] is on record?
Answer: The T/C was 102 % of control.

Question: What about the T/C [4] of the same molecule?
Answer: Its T/C is 100 % of control.

Question: For `COc1ccc(-c2ccc(OC)c(=O)cc2)c(OC)c1OC`, which T/C (dose: 50.0 mg/kg/injection, schedule: Q01DX005 (ip), vehicle: Klucel (hydroxypropylcellulose) (HPC)) is on record?
Answer: Its T/C is 93 % of control.

Question: What about the T/C [2] of the same molecule?
Answer: The T/C was 105 % of control.

Question: With `Cc1ccc(S(=O)(=O)Nn2nnnc2N)cc1` as the molecule, how does the T/C (dose: 100.0 mg/kg/injection, schedule: Q01DX001 (ip), vehicle: Klucel (hydroxypropylcellulose) (HPC)) read?
Answer: The T/C was 102 % of control.

Question: And the T/C (dose: 200.0 mg/kg/injection, schedule: Q01DX001 (ip), vehicle: Klucel (hydroxypropylcellulose) (HPC))?
Answer: The T/C was 100 % of control.

Question: What about the T/C (dose: 400.0 mg/kg/injection, schedule: Q01DX001 (ip), vehicle: Klucel (hydroxypropylcellulose) (HPC)) of the same molecule?
Answer: Its T/C is 100 % of control.

Question: What does the source list for `O=C1C(=Cc2ccccc2)C(=O)c2ccccc21`?
Answer: T/C (dose: 25.0 mg/kg/injection, schedule: Q04DX002 (ip), vehicle: saline with Tween-80): 108 % of control; T/C (dose: 50.0 mg/kg/injection, schedule: Q04DX002 (ip), vehicle: saline with Tween-80): 109 % of control; T/C (dose: 100.0 mg/kg/injection, schedule: Q04DX002 (ip), vehicle: saline with Tween-80): 109 % of control; T/C (dose: 200.0 mg/kg/injection, schedule: Q04DX002 (ip), vehicle: saline with Tween-80): 107 % of control; T/C (dose: 400.0 mg/kg/injection, schedule: Q04DX002 (ip), vehicle: saline with Tween-80): 112 % of control

Question: `N#CC1C(=O)NC(=O)C(C#N)C1C1C(=O)NC2CCCCC21` (stereo not drawn) was tested. Which T/C [3] did it give?
Answer: The T/C was 114 % of control.

Question: And the T/C [4]?
Answer: Its T/C is 99 % of control.

Question: And the T/C (dose: 200.0 mg/kg/injection, schedule: Q01DX009 (ip), vehicle: saline with Tween-80)?
Answer: The T/C was 112 % of control.
